Measurements from a melting point compilation (Tetko et al.; mined from patent text by program, amines drawn as free bases though some values may be those of a salt).

Row | Structure (SMILES) | melting point [°C]
1 | CC(C)COC(=O)N[C@H](CCCNC(=O)OCc1ccccc1)C(=O)NCc1ccc(CC(N)=O)cc1 | 145
2 | CCCCCCCCCCCCCCCCOC(=O)c1cccc(N)c1 | 52 to 53
3 | COc1ccc(C=CC(=O)O)cc1-c1cc2c(cc1OCCCCCCO)C(C)(C)CCC2(C)C | 118 to 120
4 | CNC(=O)c1ccnc(NC(=O)N2CCC3(CC2)Cc2ccccc2C3)c1 | 229 to 231
5 | C#CCc1c(C)nc2c(OCc3ccccc3OC)cccn12 | 134 to 136
6 | COc1ccc(Cc2c[nH]c(=O)c3ccccc23)cn1 | 191
7 | Cc1cccc(C(O)(c2cccc(C)c2)c2cccc(-c3ccc4ccccc4c3)c2)c1 | 58 to 60
8 | Cc1cccc2[nH]c(=O)n(CCCN3CC=C(c4cccc(C(F)(F)F)c4)CC3)c(=O)c12 | 158 to 160
9 | O=C(CCCN1CCC2(CC1)OC(=O)c1ccccc12)c1ccc(F)cc1 | 183 to 184
10 | O=C(O)CCC1=C2C(=CC(Cl)=CC2(F)Cl)NC1C(=O)O (stereo not given) | 292 to 294
11 | CCN1CCCCC1CCc1ccccc1NC(=O)C=Cc1ccccc1 (stereo not given) | 120 to 122
12 | CC1SC(=O)NN=C1c1ccc2c(c1)C(C)(C)C(=O)N2C(=O)c1ccccc1 (stereo not given) | 200
13 | C[C@@H]1N(c2ccc(C#N)c(C(F)(F)F)c2)C(=O)C[C@@]1(O)C1CC1 | 84 to 90
14 | C[C@]12CCC(=O)N[C@@H]1CCc1cc(Sc3ccccc3F)ccc12 | 196 to 198
15 | CCOc1cc2c(cn1)[nH]c1ccccc12 | 130 to 133
16 | O=C(Nc1cccnc1)N1CCN(c2nccc(-c3cccc(F)c3)n2)CC1 | 210 to 211
17 | CSc1sc(-c2cncs2)c2c1C(=O)CC(C)(C)C2 | 138 to 140
18 | O=C(c1ccco1)N1CCc2cc(S(=O)(=O)n3cc(-c4ccccc4)[nH]c3=O)ccc21 | 256 to 257
19 | CCN1c2ncccc2C(N2CCCC2)=Nc2c(C)cc(C)nc21 | 138 to 140
20 | COc1ccc(C2=NN(C3CCN(S(=O)(=O)N(C)C)CC3)C(=O)CC2)cc1OC | 103 to 106
21 | CC1(C)Sc2oc(S(N)(=O)=O)cc2C1=O | 167 to 169

Row | Structure (SMILES) | melting point [°C]
22 | CCCCCCCCOc1ccc(-c2ncc(-c3ccc(CCCCCCCC)cc3)cn2)c(F)c1 | 75
23 | N#Cc1ccc(C=NO)c(F)c1 | 179 to 182
24 | O=C1CC(=Cc2c[nH]c3ccccc23)C(=O)O1 | 90 to 91
25 | C=CCSc1nnc(Cl)c2ccccc12 | 76 to 78
26 | CC1(C)OC(=O)Nc2ccc(-c3cc(F)cc(Br)c3)cc21 | 182 to 183
27 | Oc1ccc(N=C(C=COc2ccccc2)Oc2ccccc2)cc1 | 110
28 | CN1CCC(OC2c3ccccc3CCn3cc(-c4ccc(NC(=O)C(C)(C)C)cc4)nc32)CC1 (stereo not given) | 120
29 | COc1ccccc1NC(=O)Nc1nc(Nc2ccc(CC(=O)O)cc2)nc(Oc2ccc3ccccc3c2)n1 | 232 to 240
30 | CCOc1ccccc1N1CCN(CCCC2CN(C)C(=O)O2)CC1 (stereo not given) | 79 to 81
31 | CCOC(=O)C1C2OC3COC(C)(C)OC3C(OC)C21 (stereo not given) | 65 to 68
32 | COc1cc(OC)cc(-c2ncn(CCO)c2-c2ccc(OC)c(F)c2)c1 | 202 to 204
33 | C=CCN(CC(=O)OC(C)(C)C)c1c(N)c(=O)c1=O | 175 to 176
34 | COc1ccc(CCN(C)CCCOc2ccc(NC(=O)c3cccc4c(=O)c5ccccc5[nH]c34)cc2)cc1OC | 140
35 | O=C1C(=O)c2ccccc2C2=C1SCC(CN1CCN(c3ccc(F)cc3)CC1)O2 (stereo not given) | 180 to 182
36 | NC(=O)CN1C(=O)[C@H](NC(=O)c2cc3ccccc3[nH]2)[C@H](c2ccccc2)Sc2cc(Cl)ccc21 (relative stereo) | 174 to 178
37 | CCCCCCc1ccc(OCCCCCCCCCCCCCCCC(=O)NCCO)cc1O | 96.4
38 | O=C1CC(c2ccc(OCc3ccccc3)cc2)=Nc2ccc(N3CCCC3)cc21 | 330 to 332
39 | C=C1Cc2c(n(-c3ccccc3)c3ncccc3c2=O)O1 | 259 to 261
40 | NC1CN(c2c(F)cc3c(=O)c(C(=O)O)cn(C4CC4)c3c2F)C1 | 214 to 216
41 | O=C(Nc1ccccc1)ONC1=Nc2ccc([N+](=O)[O-])cc2C(c2ccccc2Cl)=NC1 | 201 to 203
42 | COn1ccn(C)c1=S | 56.9 to 57.5

Row | Structure (SMILES) | melting point [°C]
43 | CCOC(=O)/C=C(C)/C=C/C=C(\C)C1=Cc2cc(Cl)cc(C)c2OC1 | 107
44 | COc1cc(NC(=O)OC(C)(C)C)c(NC(=O)CC(=O)c2cccc(-n3ccnc3C)c2)cc1-c1ccccc1F | 83 to 86
45 | CC(C)c1[nH][nH]c(=O)c1Cc1ccc2ccccc2c1 | 143 to 145
46 | C[C@@H]1Cc2cc3c(cc2C(c2ccc([N+](=O)[O-])c(Cl)c2)=NN1)OCO3 | 165 to 170
47 | COc1cc(Cc2cnc(N)nc2N)c2c(c1OC)OC(C)CC2O (stereo not given) | 201 to 203
48 | Cc1ccc(-c2cc(OCC3CO3)c3ccccc3n2)cc1 (racemic) | 100 to 102
49 | N#CCCNC(=O)c1cccc(-c2ccc3c(c2)N(Cc2cc(Cl)cc(Cl)c2)CC3)c1 | 179 to 180
50 | CCCCn1c(=O)c2c(N3CCN(C)CC3)cc(Cl)cc2n(Cc2ccccc2)c1=O | 121 to 123
51 | COCCCOc1cc(C[C@@H](C[C@H](N)[C@@H](O)C[C@H](C(=O)NCC(C)(C)C(N)=O)C(C)C)C(C)C)ccc1OC | 95 to 104
52 | CCOc1ccc2c(c1)C(C)(c1ccccc1Cl)C(=O)N2S(=O)(=O)c1ccc(NC(=O)N(CC)CC)cc1OC (stereo not given) | 137
53 | NCC(c1ccccc1)C(CN)c1ccccc1 (stereo not given) | 144 to 145
54 | BrCCc1ccc2c(c1)CCC2 | 57.8 to 58.1
55 | COCNC(=O)ON=C1SCOC1C (stereo not given) | 78 to 79
56 | O=C1N=C(N2CCCC2)SC1=Cc1ccc(-c2cc(F)c(O)c(C34CC5CC(CC(C5)C3)C4)c2)s1 | 312 to 315
57 | OCc1cc(-c2nnc3c4ccccc4c(OCc4ccccn4)nn23)no1 | 129 to 131
58 | ClCc1coc(-c2ccc(Cl)s2)n1 | 90 to 91
59 | C[Si](C)(C)O[C@H]1C=C(S(=O)(=O)c2ccccc2)C=CCC1 | 61.9 to 63.8
60 | CCC(C)C1Sc2ccccc2NC1=O (stereo not given) | 99 to 100
61 | Cc1cc(C)c2c(c1)S(=O)(=O)NCN2 | 160 to 165

Continued, values first:

Row | melting point [°C] | Structure (SMILES)
62 | 220 | OC(Cn1ccnc1)(c1ccc(F)cc1)c1ccc(-c2ccccc2)cc1 (stereo not given)
63 | 94 to 95 | CC(C)(Oc1ccc(C#N)cc1)C(O)Cc1cnccn1 (stereo not given)
64 | 155 to 157 | CC(C)(C)OC(=O)c1ccc([N+](=O)[O-])c(OCCOc2cc(C(=O)OC(C)(C)C)ccc2[N+](=O)[O-])c1
65 | 225 to 228 | O=C(O)C(=O)c1ccc(OCc2ccc3ccccc3n2)cc1
66 | 70 | COC(=O)c1ccc(CNC(=O)C2Cc3ccccc3N2S(=O)(=O)c2ccc(-c3cccc(C(F)(F)F)c3)cc2)cc1 (stereo not given)
67 | 95 to 96 | CC(C)(C)OC(=O)N1CCN(c2ccc(Oc3cc(Cl)ccc3N)cc2)CC1
68 | 194 to 195 | COC(=O)C(=O)N(N=C(C#N)c1ccc(C#N)cc1)c1c(Cl)cc(C(F)(F)F)cc1Cl
69 | 68 to 70 | COC(=O)C(C)(C)Cc1ccc(-c2ccc(CC(C)(C)C(=O)OC)cc2)cc1
70 | 252 to 255 | O=C1C=C(Nc2cc(F)ccc2F)CCN1
71 | 131 to 132 | CC(=O)Nc1cc(F)ccc1S(=O)(=O)CC#N
72 | 157 to 160 | Cc1cc(=O)oc2nc(N(C)C)ccc12
73 | 107 to 109 | C#CCNC(=O)Oc1cccc2c1OC(C)(C)O2
74 | 138 to 139 | O=C(Nc1cscn1)C(F)(F)F
75 | 166 to 169 | N#CC(C#N)=CNc1cc(C(F)(F)F)ccc1Cl
76 | 225 | NC(=O)c1cc(C(=O)c2ccccc2)ccc1N
77 | 206 to 209 | NC(=O)c1ccccc1Nc1ccncc1
78 | 230 to 232 | CCOc1ccc([C@H]2O[C@H](CC(=O)O)C(=O)N(CC(C)(C)C)c3ccc(Cl)cc32)c(OC)c1 (relative stereo)
79 | 110 to 112 | COC(=O)C1CC(Oc2ccc(N)cc2)CN1C(=O)C1(C)CCc2c(C)c(O)c(C)c(C)c2O1 (stereo not given)
80 | 139 to 141 | Cn1c(C(F)(F)F)cc(=O)n(-c2c(F)cc(Cl)c3oc(CO)cc23)c1=O
81 | 96 to 97 | CC(Oc1ccc(F)cc1F)c1ccnc2ncnn12 (stereo not given)

Row | melting point [°C] | Structure (SMILES)
82 | 227 to 231 | NC(C(=O)O)c1ccc(C(=O)O)cc1SCCc1ccccc1 (stereo not given)
83 | 56 to 57 | OCCc1ccc2sccc2c1
84 | 276 to 277 | Cc1ccc(C(=S)Oc2ccc(C(=O)O)cc2)cc1C12CC3CC(CC(C3)C1)C2
85 | 132 to 133 | CON(c1ccc([N+](=O)[O-])cc1Cl)S(=O)(=O)c1cc(Cl)ccc1Cl
86 | 154 to 155 | CCCc1nnc(Cc2ccc(NC(=O)/C=C/c3cnn(C)c3-c3ccc(F)cc3)cc2)o1
87 | 160 to 161 | CC(=O)Nc1nc2c(Oc3cc(-c4ccc(C(F)(F)F)cc4N)ncn3)cccc2s1
88 | 111 to 112 | CC(C)C(=O)C1(S(=O)(=O)c2ccc(O)cc2)CC1
89 | 128 to 131 | CCS(=O)(=O)c1ccc(F)c([N+](=O)[O-])c1
90 | 251 to 253 | CCOC(=O)c1ncn2c1c(S)nc1ccccc12
91 | 51 to 53 | CC(C)(C)OC(=O)/C(C#N)=C/c1cccc2ccccc12
92 | 238 to 240 | CN(C)C=Cc1[nH]c(=O)ccc1C(=O)c1ccco1
93 | 94 to 97 | C[C@@H](Cn1ncc2ccc3c(c21)C[C@@H](OCC(N)=O)CO3)N=[N+]=[N-]
94 | 158 to 160 | CCOC(=O)c1nc2cc(Br)ccn2n1
95 | 181 to 184 | CN(C(N)=O)c1ccc(C(O)(C(F)(F)F)C(F)(F)F)cc1
96 | 104 to 106 | CCOC(=O)c1c(-c2ccc(OC)c(OC)c2)c2cc(Cl)ccc2n(C)c1=O
97 | 144 | FC(F)(F)c1cccc(C(c2ccc3ncccc3c2Cl)n2cncn2)c1 (stereo not given)
98 | 167 | CC(C)(C)C(=O)Oc1ccc2nc(S(N)(=O)=O)sc2c1
99 | 145 to 148 | CCOC(=O)N1CCC(c2ccc3oc(-c4ccc(S(C)(=O)=O)cc4F)nc3c2)CC1
100 | 149 to 150 | COc1ccc(S(=O)(=O)CCCc2ccc(CC(=O)O)cc2)cc1
